Experimental data from US20230255953A1, “USE OF ROLUPERIDONE IN PREVENTING RELAPSE IN SCHIZOPHRENIA PATIENTS” (Minerva Neurosciences, Inc., priority 2022, published 2023).

Test system: patients with negative symptoms of schizophrenia
Assay: Integrated analysis (pooled ITT): PSP Total score
Format: in vivo, human
Design: key to PSP Total score, LS mean change from Baseline compared with placebo / PSP Total Score change from Baseline, Median: change in PSP Total score (scale 1-100, higher = better functioning)
Conditions: for PSP Total Score change from Baseline, LS mean (SE) / PSP Total Score change from Baseline, Mean (SD) / PSP Total Score change from Baseline, Median / PSP Total Score, Difference (95% CI) in LS mean (vs placebo): DB; for PSP Total Score change from Baseline, LS mean (SE) / PSP Total Score change from Baseline, Mean (SD) / PSP Total Score change from Baseline, Median / PSP Total Score, Difference (95% CI) in LS mean (vs placebo) / PSP Total score, LS mean change from Baseline compared with placebo: pooled ITT; for PSP Domain Disturbing and Aggressive Behavior, Change from Baseline (LS Means [SEM]) / PSP Domain Personal and Social Relationships, Change from Baseline (LS Means [SEM]) / PSP Domain Self-Care, Change from Baseline (LS Means [SEM]) / PSP Domain Socially Useful Activities, Change from Baseline (LS Means [SEM]) / PSP Total Score, Change from Baseline (LS Means [SEM]): ITT; for Patients with high improvement in PSP Total score (magnitude of change ≥10) / Patients with moderate improvement in PSP Total score (magnitude of change 7-9) / Patients with moderate or high improvement in PSP Total score, total: pooled; for Patients with 7-Point Improvement in PSP Total Score at Week 12, percent / Number of Patients with 7-Point improvement in PSP Total Score at Week 12: responder analysis; for Number of Patients with 7-Point improvement in PSP Total Score at Week 12: n/N
Description: The primary integrated analysis of the efficacy of Roluperidone compared with placebo for the treatment of negative symptoms of schizophrenia is based on the change from Baseline in the PANSS Marder's negative symptoms factor score (in this document referred to as NSFS) to Week 12. Efficacy is also supported by the analysis of change from Baseline in the PSP Total score and the CGI-S to Week 12.
The PSP is a validated clinician-rated scale intended to reflect real-life situations that measures personal and social functioning in 4 domains: (a) socially useful activities, (b) personal and social relationships, (c) self-care, and (d) disturbing and aggressive behaviors. The score is based on the assessment of a patient's performance in the 4 domains. The PSP Total score is a single measurement of functioning ranging from 1 to 100, where a higher score represents better functioning. A score of 91 to 100 indicates excellent functioning in all 4 main areas; the patient is held in high consideration for their good qualities, copes adequately with life problems, and is involved in a wide range of interests and activities. A score of 1 to 10 indicates a lack of autonomy in basic functioning with extreme behaviors but without survival risk (score 6 to 10) or with survival risk (score 1 to 5). […] Review of the relevant scientific literature and the analysis of the psychometric properties of the 4 domains that result in the generation of the PSP Total score were supportive of the appropriateness and cross-cultural applicability of the use of the PSP in drug development for the indication of negative symptoms of schizophrenia The PSP was assessed at the timepoints described in Table 6. The changes from Baseline in the PSP Total score and individual domain scores after 12 weeks of treatment were exploratory efficacy endpoints in Study MIN-101C03, and the Total score was the key secondary efficacy endpoint and the PSP domain scores were exploratory endpoints in Study MIN-101C07.
The Efficacy data from Study Nos. 1 and 2 were pooled. The majority of patients in the pooled ITT population completed the DB period (502 patients overall, 66.3%), with similar rates in each treatment group (placebo: 69.8%, 32 mg Roluperidone: 65.3%, and 64 mg Roluperidone: 63.8%) (Table 12). The majority (62.7%) of those who completed the DB period entered the OL period. The most common reason for discontinuation during the DB period among patients overall was withdrawal of consent (15.6%), followed by adverse events (7.3%) and lack of efficacy (5.4%) (Table 12). […] Approximately twice as many patients in the Roluperidone groups (32 mg: 8.5%; 64 mg: 9.1%) discontinued due to adverse events compared with patients in the placebo group (4.3%). More patients in the placebo group discontinued due to lack of efficacy (6.7%) than in the Roluperidone groups (32 mg: 4.4%; 64 mg: 5.1%). The low number of patients who discontinued due to lack of efficacy or withdrawal of consent probably reflects a low level of worsening of positive symptoms.
The integrated analysis supporting the efficacy of Roluperidone as a treatment for the negative symptoms of schizophrenia in adults is presented below.

Question: How did the “PSP Total Score change from Baseline, LS mean (SE)” value (shortened to “PSP Total Score change … (SE)”) (32 mg, Week 4) turn out when “1H-Isoindol-1-one,2-[ [1-[2-(4-fluorophenyl)-2-oxoethyl]-4-piperidinyl]methyl]-2,3-dihydro-, hydrochloride, hydrate (1:1:2) [Roluperidone]” was run?
Answer: 1.6 (0.52)

Question: What about the “PSP Total Score change from Baseline, Mean (SD)” value (shortened to “PSP Total Score change … (SD)”) (32 mg, Week 4) of the same substance?
Answer: 1.5 (7.87)

Question: And the “PSP Total Score change from Baseline, Median” value (32 mg, Week 4)?
Answer: 0.0

Question: And the “PSP Total Score, Difference (95% CI) in LS mean (vs placebo)” value (“PSP Total Score, Difference (95% CI)” for short) (32 mg, Week 4)?
Answer: 0.7

Question: What about the “PSP Total Score change … (SE)” value (32 mg, Week 8) of the same substance?
Answer: 2.9 (0.62)

Question: And the “PSP Total Score change … (SD)” value (32 mg, Week 8)?
Answer: 3.6 (7.04)

Question: What about the “PSP Total Score change from Baseline, Median” value (32 mg, Week 8) of the same substance?
Answer: 2.0

Question: What about the “PSP Total Score, Difference (95% CI)” value (32 mg, Week 8) of the same substance?
Answer: 0.6

Question: And the “PSP Total Score change … (SE)” value (32 mg, Week 12)?
Answer: 3.3 (0.71)

Question: What about the “PSP Total Score change … (SD)” value (32 mg, Week 12) of the same substance?
Answer: 3.5 (10.03)

Question: And the “PSP Total Score change from Baseline, Median” value (32 mg, Week 12)?
Answer: 2.0

Question: And the “PSP Total Score, Difference (95% CI)” value (32 mg, Week 12)?
Answer: 0.5

Question: What about the “PSP Domain Disturbing and Aggressive Behavior, Change from Baseline (LS Means [SEM])” value (32 mg, Week 12) of the same substance?
Answer: −0.1 (0.04)

Question: And the “PSP Domain Personal and Social Relationships, Change from Baseline (LS Means [SEM])” value (32 mg, Week 12)?
Answer: −0.3 (0.05)

Question: And the “PSP Domain Self-Care, Change from Baseline (LS Means [SEM])” value (32 mg, Week 12)?
Answer: −0.3 (0.05)

Question: And the “PSP Domain Socially Useful Activities, Change from Baseline (LS Means [SEM])” value (32 mg, Week 12)?
Answer: −0.3 (0.05)

Question: And the “PSP Total Score, Change from Baseline (LS Means [SEM])” value (32 mg, Week 12)?
Answer: 3.3 (0.71)

Question: What about the “PSP Total score, LS mean change from Baseline compared with placebo” value (32 mg, Week 12) of the same substance?
Answer: 0.5

Question: And the “Patients with high improvement in PSP Total score (magnitude of change ≥10)” value (32 mg)?
Answer: 26%

Question: And the “Patients with moderate improvement in PSP Total score (magnitude of change 7-9)” value (32 mg)?
Answer: 7%

Question: What about the “Patients with moderate or high improvement in PSP Total score, total” value (32 mg) of the same substance?
Answer: 33%

Question: What about the “Patients with 7-Point Improvement in PSP Total Score at Week 12, percent” value (32 mg) of the same substance?
Answer: 33%

Question: What about the “Number of Patients with 7-Point improvement in PSP Total Score at Week 12” value (32 mg) of the same substance?
Answer: 54/166

Question: And the “PSP Total Score change … (SE)” value (64 mg, Week 4)?
Answer: 3.1 (0.52)

Question: And the “PSP Total Score change … (SD)” value (64 mg, Week 4)?
Answer: 3.1 (8.33)

Question: And the “PSP Total Score change from Baseline, Median” value (64 mg, Week 4)?
Answer: 1.0

Question: What about the “PSP Total Score, Difference (95% CI)” value (64 mg, Week 4) of the same substance?
Answer: 2.1

Question: What about the “PSP Total Score change … (SE)” value (64 mg, Week 8) of the same substance?
Answer: 4.9 (0.61)

Question: What about the “PSP Total Score change … (SD)” value (64 mg, Week 8) of the same substance?
Answer: 4.8 (6.61)

Question: What about the “PSP Total Score change from Baseline, Median” value (64 mg, Week 8) of the same substance?
Answer: 3.0

Question: And the “PSP Total Score, Difference (95% CI)” value (64 mg, Week 8)?
Answer: 2.6

Question: And the “PSP Total Score change … (SE)” value (64 mg, Week 12)?
Answer: 6.4 (0.69)

Question: And the “PSP Total Score change … (SD)” value (64 mg, Week 12)?
Answer: 6.4 (10.32)

Question: And the “PSP Total Score change from Baseline, Median” value (64 mg, Week 12)?
Answer: 4.5

Question: What about the “PSP Total Score, Difference (95% CI)” value (64 mg, Week 12) of the same substance?
Answer: 3.6

Question: And the “PSP Domain Disturbing and Aggressive Behavior, Change from Baseline (LS Means [SEM])” value (64 mg, Week 12)?
Answer: −0.0 (0.04)

Question: And the “PSP Domain Personal and Social Relationships, Change from Baseline (LS Means [SEM])” value (64 mg, Week 12)?
Answer: −0.4 (0.05)

Question: And the “PSP Domain Self-Care, Change from Baseline (LS Means [SEM])” value (64 mg, Week 12)?
Answer: −0.3 (0.05)

Question: What about the “PSP Domain Socially Useful Activities, Change from Baseline (LS Means [SEM])” value (64 mg, Week 12) of the same substance?
Answer: −0.4 (0.05)

Question: And the “PSP Total Score, Change from Baseline (LS Means [SEM])” value (64 mg, Week 12)?
Answer: 6.4 (0.69)

Question: What about the “PSP Total score, LS mean change from Baseline compared with placebo” value (64 mg, Week 12) of the same substance?
Answer: 3.6

Question: And the “Patients with high improvement in PSP Total score (magnitude of change ≥10)” value (64 mg)?
Answer: 36%

Question: And the “Patients with moderate improvement in PSP Total score (magnitude of change 7-9)” value (64 mg)?
Answer: 7%

Question: What about the “Patients with moderate or high improvement in PSP Total score, total” value (64 mg) of the same substance?
Answer: 43%

Question: And the “Patients with 7-Point Improvement in PSP Total Score at Week 12, percent” value (64 mg)?
Answer: 43%

Question: And the “Number of Patients with 7-Point improvement in PSP Total Score at Week 12” value (64 mg)?
Answer: 76/176

Question: What about the “PSP Total Score change … (SD)” value (Roluperidone Total, Week 4) of the same substance?
Answer: 2.3 (8.14)

Question: And the “PSP Total Score change from Baseline, Median” value (Roluperidone Total, Week 4)?
Answer: 0.0

Question: And the “PSP Total Score change … (SD)” value (Roluperidone Total, Week 8)?
Answer: 4.2 (6.84)

Question: What about the “PSP Total Score change from Baseline, Median” value (Roluperidone Total, Week 8) of the same substance?
Answer: 3.0

Question: What about the “PSP Total Score change … (SD)” value (Roluperidone Total, Week 12) of the same substance?
Answer: 5.0 (10.27)

Question: And the “PSP Total Score change from Baseline, Median” value (Roluperidone Total, Week 12)?
Answer: 3.0
